Assay [1] addresses T1, Receptor-type tyrosine-protein kinase FLT3 (Homo sapiens, UniProt P36888).
T1 sequence (P36888 whole entry): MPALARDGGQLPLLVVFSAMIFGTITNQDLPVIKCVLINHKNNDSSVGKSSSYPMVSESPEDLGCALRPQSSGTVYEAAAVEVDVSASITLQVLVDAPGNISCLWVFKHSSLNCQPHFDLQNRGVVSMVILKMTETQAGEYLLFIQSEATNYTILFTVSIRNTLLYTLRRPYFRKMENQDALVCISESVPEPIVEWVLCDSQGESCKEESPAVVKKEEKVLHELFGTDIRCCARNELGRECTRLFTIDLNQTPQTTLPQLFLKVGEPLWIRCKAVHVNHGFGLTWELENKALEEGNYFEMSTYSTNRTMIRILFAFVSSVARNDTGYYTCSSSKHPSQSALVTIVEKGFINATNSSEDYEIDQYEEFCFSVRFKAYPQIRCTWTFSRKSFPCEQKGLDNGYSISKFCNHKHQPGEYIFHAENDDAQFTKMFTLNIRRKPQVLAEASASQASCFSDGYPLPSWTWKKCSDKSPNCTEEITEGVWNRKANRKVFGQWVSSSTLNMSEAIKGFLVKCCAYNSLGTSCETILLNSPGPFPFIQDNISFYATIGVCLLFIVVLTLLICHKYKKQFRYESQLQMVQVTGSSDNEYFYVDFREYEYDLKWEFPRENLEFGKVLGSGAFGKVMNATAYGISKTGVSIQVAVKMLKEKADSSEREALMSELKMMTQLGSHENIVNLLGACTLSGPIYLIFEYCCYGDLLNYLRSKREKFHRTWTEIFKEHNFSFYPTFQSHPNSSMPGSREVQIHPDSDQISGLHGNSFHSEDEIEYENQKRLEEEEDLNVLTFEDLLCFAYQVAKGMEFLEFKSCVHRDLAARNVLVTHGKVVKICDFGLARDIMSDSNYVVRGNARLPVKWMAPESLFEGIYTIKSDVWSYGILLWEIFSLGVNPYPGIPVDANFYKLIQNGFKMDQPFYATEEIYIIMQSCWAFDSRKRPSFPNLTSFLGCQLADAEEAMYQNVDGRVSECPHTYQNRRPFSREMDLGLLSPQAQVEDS
Description: Inhibition of FLT3 (unknown origin) using Poly (Glu,Tyr) 4:1 as substrate incubated for 1 hr in presence of ATP by ELISA

The target of assay [2] is Receptor-type tyrosine-protein kinase FLT3 (Homo sapiens, UniProt P36888, ITD).
Description: Inhibition of FLT3-ITD mutant (unknown origin) using Poly (Glu,Tyr) 4:1 as substrate incubated for 1 hr in presence of ATP by ELISA
The test system of another assay is MOLM-13. Put plainly: cells. To be noted: Homo sapiens, MOLM-13, 72 h.
The subject of the next assay is MV4-11. Description: cells. The following applies: Homo sapiens, MV4-11, 72 h.
The target of assay [3] is Receptor-type tyrosine-protein kinase FLT3 (Homo sapiens, UniProt P36888, D835Y).
Assay [4] has as its target Receptor-type tyrosine-protein kinase FLT3 (Homo sapiens) (UniProt P36888). To be noted: MV4-11, dose 1.1 nM, time 2.0 hrs.
Assay [5] has the same target. Description: Inhibition of FLT3 phosphorylation in human MV4-11 cells at 0.1 to 10 nM incubated for 2 hrs by Western blot analysis. It counts as cell-based. The following applies: dose 0.1-10 nM.
The target is the same in assay [6]. The following applies: MV4-11, dose 1.1 nM, time 2.0 hrs. This is another data set of the same source.
Assay [7] has the same target. Put plainly: Inhibition of FLT3 in human MV4-11 cells assessed as suppression of Erk phosphorylation incubated for 2 hrs by Western blot analysis. It counts as cell-based. The following applies: dose 0.1-10 nM. In general terms: In western blotting, separated proteins are transferred to a membrane and probed.

Activity calls are given as the source filed them. The rule behind the calls is not given here.

Description for MOLM-13: Antiproliferative activity against human MOLM-13 cells assessed as reduction in cell viability incubated for 72 hrs by CCK8 assay
Description for MV4-11: Antiproliferative activity against human MV4-11 cells assessed as reduction in cell viability incubated for 72 hrs by CCK8 assay

As to `N#Cc1cc(N2CCOCC2)ccc1NC(=O)c1cnn2ccc(N[C@@H]3CCCNC3)nc12`, the half-inhibitory concentration (IC50) in assay [1] turned out to be 2.6 nM; in assay [2], 2 nM; in the assay on MOLM-13, 3.7 nM; with MV4-11, 0.6 nM.
For `O=C(Nc1ccc(N2CCOCC2)cc1C(F)(F)F)c1cnn2ccc(NC3CCCCC3)nc12`, the IC50 (in [1]; in assay [2]; in the assay on MOLM-13; in the assay on MV4-11) was > 1000 nM throughout.
As to `O=C(Nc1ccc(N2CCOCC2)cc1C(F)(F)F)c1cnn2ccc(N[C@@H]3CCNC3)nc12`, the half-inhibitory concentration (IC50) was found to be 5.5 nM in [1], 96.7 nM in [2], 16.3 nM in the assay on MOLM-13 and 8 nM with MV4-11.
Taken in the same sequence, the figures for `O=C(Nc1ccc(N2CCOCC2)cc1)c1cnn2ccc(N[C@@H]3CCCNC3)nc12` were 37.7 nM, 21.6 nM, 37.1 nM and 23.5 nM.
In the same order, the values of `COc1cc(N2CCN(C)CC2)ccc1NC(=O)c1cnn2ccc(N3CCC[C@@H](N)C3)nc12` are 12 nM, 3.7 nM, 17 nM and 7 nM.
In the same order, the values of `CSc1cc(N2CCOCC2)ccc1NC(=O)c1cnn2ccc(N[C@@H]3CCCNC3)nc12` are 1.2 nM, 1.6 nM, 2.5 nM and < 0.32 nM.
Take `CN(c1ccn2ncc(C(=O)Nc3ccc(N4CCOCC4)cc3C(F)(F)F)c2n1)[C@@H]1CCCNC1`: the half-maximal inhibitory concentration (IC50) is 160 nM in assay [1], > 1000 nM in assay [2], > 1000 nM in the assay on MOLM-13 and > 1000 nM in the assay on MV4-11.
Consider `COc1cc(N2CCN(S(C)(=O)=O)CC2)ccc1NC(=O)c1cnn2ccc(N3CCC[C@@H](N)C3)nc12`, for which the IC50 in [1] amounted to 3.9 nM; in [2] it was 18.7 nM; with MOLM-13 it was 43.7 nM; with MV4-11, 26.5 nM.
Regarding `COc1cc(N(C)CCN(C)C)ccc1NC(=O)c1cnn2ccc(N[C@@H]3CCCNC3)nc12`, the concentration for half-maximal inhibition (IC50) in assay [1] is 3.5 nM; in assay [2], 37.5 nM; in the assay with MOLM-13, 23.5 nM; in the assay on MV4-11, 10 nM.
`O=C(Nc1ccc(N2CCOCC2)cc1Br)c1cnn2ccc(N[C@@H]3CCCNC3)nc12`: the IC50 is 0.4 nM in [1]; 0.4 nM in [3]; 0.8 nM in [2]; 0.6 nM in the assay on MOLM-13; < 0.32 nM in the assay with MV4-11.
`Cc1cc(N2CCOCC2)ccc1NC(=O)c1cnn2ccc(N[C@@H]3CCCNC3)nc12`: the 50% inhibitory concentration (IC50) was determined as 1.4 nM in assay [1], 1.1 nM in assay [2], 13.8 nM with MOLM-13 and 7.5 nM with MV4-11.
For the compound `COc1cc(N2CCCC2)ccc1NC(=O)c1cnn2ccc(N[C@@H]3CCCNC3)nc12`, the concentration for half-maximal inhibition (IC50) in assay [1] was 7.1 nM; in assay [2], 83.1 nM; in the assay with MOLM-13, 19.5 nM; with MV4-11, 11.7 nM.
Taken in the same sequence, the figures for `O=C(Nc1ccc(N2CCOCC2)cc1C(F)(F)F)c1cnn2ccc(NC3CNC3)nc12` were 39.9 nM, 30.7 nM, 157 nM and 29.5 nM.
Consider `NC(=O)c1cc(N2CCOCC2)ccc1NC(=O)c1cnn2ccc(N[C@@H]3CCCNC3)nc12`, for which the IC50 in assay [1] was 8.7 nM; in assay [2], 7.2 nM; in the assay on MOLM-13, > 1000 nM; in the assay with MV4-11 it was 172 nM.
For the compound `O=C(Nc1ccc(N2CCOCC2)cc1F)c1cnn2ccc(N[C@@H]3CCCNC3)nc12`, the half-maximal inhibitory concentration (IC50) in assay [1] turned out to be 25.1 nM; in [2], 110 nM; in the assay with MOLM-13, 16.5 nM; in the assay on MV4-11, 9.8 nM.
`CN1CCC[C@@H](Nc2ccn3ncc(C(=O)Nc4ccc(N5CCOCC5)cc4C(F)(F)F)c3n2)C1`: the IC50 was 264 nM in assay [1], 181 nM in assay [2], 262 nM in the assay on MOLM-13 and 23.4 nM with MV4-11.
As to `O=C(Nc1ccc(N2CCOCC2)cc1C(F)(F)F)c1cnn2ccc(NC3CCNCC3)nc12`, the IC50 in assay [1] is 16.5 nM; in [2], 6.7 nM; with MOLM-13, 155 nM; with MV4-11, 28.5 nM.
Turning to `COc1cc(N2CCC(N3CCOCC3)CC2)ccc1NC(=O)c1cnn2ccc(N[C@@H]3CCCNC3)nc12`, the half-maximal inhibitory concentration (IC50) in [1] was determined as 2.9 nM; in [2], 18 nM; with MOLM-13 it was 10.3 nM; in the assay on MV4-11 it was 6.3 nM.
Turning to `O=C(Nc1ccc(N2CCOCC2)cc1C(F)(F)F)c1cnn2ccc(N[C@@H]3CCCNC3)nc12`, the figures for the inhibition in assay [4], in assay [6] and in [7] were 100%, 100% and “Dose-dependent effect”, respectively. Further, the concentration for half-maximal inhibition (IC50) was found to be 0.4 nM in assay [1]; 0.3 nM in assay [3]; 1 nM in [2]; 1 nM in the assay on MOLM-13; 1.3 nM in the assay on MV4-11. For the same compound, in assay [5], the inhibition result is “Active”.
As for `COc1cc(N2CCNCC2)ccc1NC(=O)c1cnn2ccc(N3CCC[C@@H](N)C3)nc12`, the IC50 was 3.8 nM in assay [1], 1.9 nM in [2], 249 nM with MOLM-13 and 46 nM in the assay on MV4-11.
In the same order, the values of `COc1ccccc1NC(=O)c1cnn2ccc(N[C@@H]3CCCNC3)nc12` are 38.2 nM, 144 nM, 19.4 nM and 5.3 nM.
Take `COc1cc(N2CCN(C(C)=O)CC2)ccc1NC(=O)c1cnn2ccc(N[C@@H]3CCCNC3)nc12`: the IC50 in assay [1] was found to be 1.4 nM; in [2] it was 1.2 nM; in the assay with MOLM-13 it was 17.4 nM; in the assay on MV4-11, 7.66 nM.
Take `O=C(Nc1ccc(N2CCOCC2)cc1C(F)(F)F)c1cnn2ccc(N[C@H]3CCCNC3)nc12`: the half-inhibitory concentration (IC50) is > 1000 nM in [1], 296 nM in assay [2], 111 nM in the assay with MOLM-13 and 12.9 nM with MV4-11.
Taken in the same sequence, the figures for `COc1cc(N2CCOCC2)ccc1NC(=O)c1cnn2ccc(N[C@@H]3CCCNC3)nc12` were 2.7 nM, 3.1 nM, 10.3 nM and 1 nM.
In the same order, the values of `O=C(Nc1ccc(N2CCOCC2)cc1C(F)(F)F)c1cnn2ccc(N[C@@H]3CCCCNC3)nc12` are 0.8 nM, 0.5 nM, 1.4 nM and < 0.32 nM.
In the same order, the values of `CC(C)Oc1cc(N2CCOCC2)ccc1NC(=O)c1cnn2ccc(N[C@@H]3CCCNC3)nc12` are 32.9 nM, 197 nM, 35.9 nM and 34.8 nM.
For `O=C(Nc1ccc(N2CCOCC2)cc1C(F)(F)F)c1cnn2ccc(N[C@H]3CN4CCC3CC4)nc12`, the IC50 was 7 nM in assay [1], 11.7 nM in [2], 26.3 nM in the assay with MOLM-13 and 5.13 nM in the assay on MV4-11.
In the same order, the values of `COc1cc(N2CCCCC2)ccc1NC(=O)c1cnn2ccc(N[C@@H]3CCCNC3)nc12` are 8 nM, 69.5 nM, 13 nM and 9.8 nM.
Taken in the same sequence, the figures for `CCOc1cc(N2CCOCC2)ccc1NC(=O)c1cnn2ccc(N[C@@H]3CCCNC3)nc12` were 2.7 nM, 4.1 nM, 11.4 nM and 9.8 nM.
On to `COc1cc(N2CCOCC2)ccc1NC(=O)c1cnn2ccc(N3CCC[C@@H](N)C3)nc12`, for which the IC50 in assay [1] turned out to be 3.5 nM; in assay [2], 1.3 nM; in the assay with MOLM-13, 28.3 nM; with MV4-11 it was 11.2 nM.

For orientation: IC50 means the concentration at which inhibition is half-maximal. Read a low IC50 as greater potency. In general, inhibition refers to how much of the control response was suppressed.

The values above are taken from ChEMBL document CHEMBL5053519, “Discovery and structure - activity relationship exploration of pyrazolo[1,5-a]pyrimidine derivatives as potent FLT3-ITD inhibitors” (Bioorg Med Chem, 2021).
